Values after ≈ are worked out from the molar mass of the structure shown. “Also recorded” adds a separate entry of the source. Read-outs that look alike come from different tables or passages of the source. Values belong to the molecule of their own block, whether it stands above or below them. Square brackets hold non-standard residues; d marks the D form. Peptide text beside a SMILES is read from it. N(1-naphthylmethyl)Gly = O=C(O)CNCc1cccc2ccccc12; 2Nal = N[C@@H](Cc1ccc2ccccc2c1)C(=O)O; d1Nal = N[C@H](Cc1cccc2ccccc12)C(=O)O; N(4-MeBn)Gly = Cc1ccc(CNCC(=O)O)cc1; dNle = CCCC[C@@H](N)C(=O)O; Nle = CCCC[C@H](N)C(=O)O; NBuGly = CCCCNCC(=O)O
What was measured:
[1] = tested on: P. aeruginosa (26314); assay type: cell-based, Pseudomonas aeruginosa
Outline: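 Canine clinical isolate P. aeruginosa 26314 tested by CLSI broth microdilution at 5 × 10^5 CFU/mL in Mueller Hinton broth II against 2-fold peptide dilutions of 1-64 μg/ml. MIC = lowest concentration without visible growth after 18 h at 37 °C; triplicates on two days.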

[2] = assay type: cell-based, human; details: human
[3] = tested on: human red blood cells; assay type: cell-based; details: for EC50: red cells of human, 1 h
[4] = tested on: E. coli, 30235; assay type: cell-based, Escherichia coli; details: 30235, 18 h
Excerpt: For antibacterial spectrum the following strains were used: Corynebacterium auriscanis, 31551, (54 C6, dog, ear, 2013); Enterococcus faecalis, 27404, (17 C7, dog, wound, 2011); Enterococcus faecium, 30951, (24 C1, dog, ear, 2013); Streptococcus canis, 26740-1, (14 H1, dog, ear, 2010); Staphylococcus aureus, 27266, (16 G9, dog, skin, 2010); Staphylococcus aureus, 27266, (16 G9, dog, skin, 2010); Staphylococcus pseudintermedius 22963, (3 B9, dog, 2007). Acinetobacter baumannii, 27065, (16 D1, dog, wound, 2010); E. coli, 30235, 23 A6, dog, wound, 2012; Klebsiella pneumoniae, 26233, (11 H5, dog, wound, 2010); Pasteurella canis, 31096, (24 C8, dog, skin, 2013); Proteus mirabilis, 25178, (9 A4, dog, ear, 2009); Pseudomonas aeruginosa 26314, 12 C5, dog, urine, 2010). MIC determination was performed by broth microdilution according to the Clinical and Laboratory Standard Institute (CLSI, […]-A3, 2008)[62]. In brief, each bacterial strain was diluted to concentration of 5 × 10^5 CFU/mL in Mueller Hinton broth II (MHB II) media (Oxoid) and added to a two-fold serial dilution of peptides and peptide-peptoid hybrids concentrations ranging from 1 to 64 μg/ml in 96-well plates (Nunc Internationals, Rochester, NY). The MICs were determined as a lowest concentration showing no visible growth after incubation for 18 hours at 37 °C. Experiments were performed in triplicates on two different days.

[5] = tested on: P. aeruginosa 26314; experiment: Time-kill kinetics, P. aeruginosa 26314; assay type: cell-based, Pseudomonas aeruginosa
Method: Time kill assays were performed in triplicate, meaning that every value is the average of three different samplings. Time–kill kinetic assays were performed using P. aeruginosa (26314), MRSP E104 and/or MRSP C22963 to determine the cell killing activity of B1 and two of its most promising analogues (compounds 23 and 26) based on prior antimicrobial susceptibility testing. The method reported by Blondeau et al.[63] was followed with minor modifications. […] After 0, 15, 30, 60, 120, 180 and 300 min of growth, 100 μL aliquots were collected and 10-fold serially diluted. Twenty μL of cell suspension from each dilution were spotted in triplicate on blood agar plates followed by 16–18 h incubation at 37 °C and determination of colony forming units (CFU).

[6] = tested on: MRSP C22963; experiment: Time-kill kinetics, MRSP C22963; assay type: cell-based, Staphylococcus pseudintermedius; details: for time to complete killing of the MRSP strain: all tested concentrations at or above the MIC
Method: Time kill assays were performed in triplicate, meaning that every value is the average of three different samplings. Time–kill kinetic assays were performed using P. aeruginosa (26314), MRSP E104 and/or MRSP C22963 to determine the cell killing activity of B1 and two of its most promising analogues (compounds 23 and 26) based on prior antimicrobial susceptibility testing. The method reported by Blondeau et al.[63] was followed with minor modifications. Briefly, the assay was performed in MHB II with concentrations corresponding to 0.5, 1, 2 and 4 times the MIC of the strain. After 0, 15, 30, 60, 120, 180 and 300 min of growth, 100 μL aliquots were collected and 10-fold serially diluted. Twenty μL of cell suspension from each dilution were spotted in triplicate on blood agar plates followed by 16–18 h incubation at 37 °C and determination of colony forming units (CFU).

SMILES: CCCCN(CC(=O)N[C@@H](CCCCN)C(=O)N(CC(=O)N(CC(=O)N(CC(N)=O)Cc1cccc2ccccc12)Cc1ccc(C)cc1)Cc1cccc2ccccc12)C(=O)[C@H](CCCCN)NC(=O)[C@@H](N)CCCCN [B1, Lys-Lys-(NBu)Gly-Lys-(N1-Nal)Gly-(N4-MeBn)Gly-(N1-Nal)Gly] (H-KK[NBuGly]K[N(1-naphthylmethyl)Gly][N(4-MeBn)Gly][N(1-naphthylmethyl)Gly]-NH2)
- Minimum Inhibitory Concentration P. aeruginosa (26314) ([1]; 26314, 18 h): 8 to 16 µg/mL
- hemolysis at 1 h, 150 µM [2]: 32%
- Haemolysis EC10 [3]: 64 µM
- EC50 [3]: 230 µM
- MIC E. coli [4]: 64 µg/mL (≈ 59.8 µM)
- killing of P. aeruginosa 26314 ([5]; 1x MIC, delayed re-growth): did not eliminate
- time to kill P. aeruginosa 26314 ([5]; 2x MIC): 24 h
- time to kill P. aeruginosa 26314 ([5]; 4x MIC): 2 h
- time to kill P. aeruginosa ([5]; 8 x MIC): less than 30 min

- EC50 [3]: 104 µM
- MIC E. coli [4]: 32 µg/mL (≈ 30.3 µM)
SMILES: CCCC[C@H](NC(=O)[C@H](CCCCN)NC(=O)[C@H](CCCCN)NC(=O)[C@@H](N)CCCCN)C(=O)N[C@@H](Cc1ccc2ccccc2c1)C(=O)N[C@@H](Cc1ccccc1)C(=O)N[C@@H](Cc1ccc2ccccc2c1)C(N)=O [Compound 23, Lys-Lys-Lys-Nle-(2-Nal)Ala-Phe-(2-Nal)Ala] (H-KKK[Nle][2Nal]F[2Nal]-NH2)
- Minimum Inhibitory Concentration P. aeruginosa (26314) ([1]; Table 1): 8 µg/mL
- hemolysis at 1 h, 150 µM [2]: 59%
- Haemolysis EC10 [3]: 14 µM
- complete killing of P. aeruginosa ([5]; up to highest tested concentration (8x MIC)): not able to completely kill; also recorded: not able to eliminate
- time to complete killing of the MRSP strain [6]: ≤ 2 h

- EC50 [3]: 63 µM
- MIC E. coli [4]: 32 µg/mL (≈ 30.3 µM)
SMILES: CCCC[C@@H](NC(=O)[C@H](CCCCN)NC(=O)[C@H](CCCCN)NC(=O)[C@@H](N)CCCCN)C(=O)N[C@H](Cc1cccc2ccccc12)C(=O)N[C@H](Cc1ccccc1)C(=O)N[C@H](Cc1cccc2ccccc12)C(N)=O [Compound 26, Lys-Lys-Lys-nle-(1-Nal)ala-phe-(1-Nal)ala] (H-KKK[dNle][d1Nal][dF][d1Nal]-NH2; N-terminus assumed)
- Minimum Inhibitory Concentration P. aeruginosa (26314) ([1]; Table 1): 8 µg/mL
- hemolysis at 1 h, 150 µM [2]: 56%
- time to complete killing of MRSP C22963 ([6]; 0.5x MIC): ≤ 1 h
- time to complete killing of the MRSP strain [6]: ≤ 2 h

Reference: article PMC6403271, “Characterization, mechanism of action and optimization of activity of a novel peptide-peptoid hybrid against bacterial pathogens involved in canine skin infections” (Scientific Reports, 2019)
